In article PMC6883931 (Frontiers in Molecular Neuroscience, 2019):
“And” between values parts separate entries of the source, which are not always exact repeats. Identical values can stand only once. Like-named read-outs stand apart in the source and are kept apart here.

Columns and labels:
GlyR = test system: GlyR; design: method as in Breitinger et al., 2016; details: ref Breitinger et al., 2016, cited from earlier work; for on-rate of current enhancement: saturating concentrations; for EC50: read-out: EC50 for augmentation of glycine-mediated responses
Male Swiss Webster mice [1] = assay: Tactile sensitivity (von Frey) test, paw withdrawal threshold; format: in vivo; details: for PWT ratio: individual mice and avg
Method: (§1) See Supplementary Material S1 for experimental details. On the day of the experiment, mice were weighed and then fasted for 5–6 h to reduce variability in initial blood glucose levels (BGL). Mice had been accustomed to the test apparatus for 2–3 h on two separate days before experiments. Two hours before testing, mice were acclimatized to the measuring apparatus. For hotplate tests, mice were accustomed to the testing condition by placing them one by one on a switched off hotplate at room temperature for the set cut off time of 30 s. One hour before testing, baseline measurements for touch sensitivity were recorded. For both experiments, mice were then injected according to protocol. Blood glucose level was measured before and after injections (Figure 3A).
Mice were divided into four experimental groups (see main text). The investigator performing the measurements was blinded to treatment groups and to the blood glucose readings. All mice were measured for their Paw withdrawal threshold (PWT) using von Frey filaments on at least one occasion before the testing day to reduce the stress or surprise from the experiment. We used the up-and-down method to determine pain withdrawal thresholds (PWT; Bradman et al., [2015]) with 8 mN as the starting value (see Supplementary Material for details). Baseline PWT values for each mouse were determined before treatment. […] Measurements were limited to the time window of 5 min after the second injection (strychnine or vehicle) due to the fast elimination kinetics of low doses of strychnine.
• (i) Baseline PWT determination for each mouse, 30 min prior to the experiment; • (ii) at time t = 0, mice were injected with glucose (2 g/kg) or vehicle • (iii) at t = 30 min, mice were injected with strychnine (0.2 or 0.5 mg/kg) or vehicle; • (iv) at t = 35 min pain-related behavior was assessed.
Von Frey Experiment – The investigator performing the measurements was blinded to treatment groups and to the blood glucose readings. All mice were measured for their paw withdrawal threshold using the Von Frey filaments on at least one occasion before the testing day. That was done to reduce the stress or surprise that might result from exposure to new conditions on the day of the experiment. A baseline reading for each mouse is also taken before the test with the consideration to leave at least one-day gab between baseline and experiment measurement to minimize any effect of repetitive measurement. […]
We used the up-and-down method to determine pain withdrawal thresholds (PWT) (Bradman et al., 2015). To assess the starting force, baseline 50% PWT was measured in five naïve mice (20-35 g) by application of von Frey hairs in an ascending order of their applied force. […] Baseline PWT values for each mouse were determined before treatment. […]

Male Swiss Webster mice [2] = assay: Hotplate test (55°C), latency until pain-related reaction; format: in vivo
Method: as §1
The investigator performing the measurements was blinded to treatment groups and to the blood glucose readings.

[3] = test system: recombinant α1, α1-β, and α3 GlyRs; design: method as in Breitinger et al., 2015; Breitinger and Breitinger, 2016; details: HEK293 cells, ref Breitinger et al., 2015, 2016; cited from earlier work
[4] = target: T1, recombinant α3L GlyRs expressed in HEK293 cells (Homo sapiens, UniProt O75311); assay: Whole-cell patch-clamp recordings of GlyR-transfected HEK293 cells; format: cell-based; details: for IC50: IC50 of strychnine inhibition; for IC50 / Ki: 60 μM glycine; for IC50 / EC50: n = 7 cells; for Ki: Ki of strychnine (Cheng-Prusoff); for EC50: mean ± SEM, read-out: EC50 of glycine-induced currents
T1 construct: expressed in transfected cells; host or cells: HEK293
Method: Current responses from GlyR-transfected HEK293 cells were measured at room temperature (21–23°C) at a holding potential of −50 mV using a HEKA EPC10 amplifier (HEKA Electronics, Lambrecht, Germany) controlled by Pulse software (HEKA Electronics). Recording pipettes were pulled from borosilicate glass (World Precision Instruments, Berlin, Germany) using a Sutter P-97 horizontal puller (Sutter, Novato, CA, USA). Solutions were applied using an Octaflow system (NPI electronics, Tamm, Germany). The external buffer consisted of 135 mM NaCl, 5.5 mM KCl, 2 mM CaCl2, 1.0 mM MgCl2, and 10 mM Hepes (pH adjusted to 7.4 with NaOH); the internal buffer was 140 mM CsCl, 1.0 mM CaCl2, 2.0 mM MgCl2, 5.0 mM EGTA, and 10 mM Hepes (pH adjusted to 7.2 with CsOH). […] Dose-response data were fitted to the Hill equation (see Supplementary Material) to determine EC50 and IC50.
Ki was calculated using the Cheng-Prusoff correction, significance was tested using one-way ANOVA with p < 0.05 considered significant. […] All data are means ± SEM; significance levels (relative to control) are indicated: *p ≤ 0.5; **p ≤ 0.01; ns, not significant.
Cell Culture and Transfection – HEK293 cells were grown in 10 cm tissue culture Petri dishes in Eagle minimal essential medium (EMEM) (Lonza, Basel, Switzerland) supplemented with 10% FBS (Invitrogen, Karlsruhe, Germany) and penicillin/streptomycin (Sigma-Aldrich, Munich, Germany) at 5% CO2 and 37 °C in a water saturated atmosphere. For electrophysiological experiments, cells were plated on acetone treated glass coverslips in 24 well plates. Transfection was performed 1 day after cell passage using polyethyleneimine (PEI) (Sigma-Aldrich, Munich, Germany): 0.75 µg of receptor DNA and 1.0 µg of green fluorescent protein DNA were mixed in 50 µl EMEM; in a second Eppendorf tube, 3.5 µl PEI was added to 50 µl EMEM, mixed and combined with the DNA solution. After 20 min incubation at room temperature, the transfection solution was added dropwise to the cells. Measurements were performed 1-3 days after transfection.
Electrophysiological Recordings and Data Analysis – Current responses from GlyR-transfected HEK293 cells were measured at room temperature (21-23°C) at a holding potential of -50 mV. Whole-cell recordings were performed using a HEKA EPC10 amplifier (HEKA Electronics, Lambrecht, Germany) controlled by Pulse software (HEKA Electronics). Recording pipettes were pulled from borosilicate glass (World Precision Instruments, Berlin, Germany) using a Sutter P-97 horizontal puller (Sutter, Novato, CA).

mice = details: cited from earlier work; for LD50: mice, Patocka, 2009

T1 sequence (O75311 34-464): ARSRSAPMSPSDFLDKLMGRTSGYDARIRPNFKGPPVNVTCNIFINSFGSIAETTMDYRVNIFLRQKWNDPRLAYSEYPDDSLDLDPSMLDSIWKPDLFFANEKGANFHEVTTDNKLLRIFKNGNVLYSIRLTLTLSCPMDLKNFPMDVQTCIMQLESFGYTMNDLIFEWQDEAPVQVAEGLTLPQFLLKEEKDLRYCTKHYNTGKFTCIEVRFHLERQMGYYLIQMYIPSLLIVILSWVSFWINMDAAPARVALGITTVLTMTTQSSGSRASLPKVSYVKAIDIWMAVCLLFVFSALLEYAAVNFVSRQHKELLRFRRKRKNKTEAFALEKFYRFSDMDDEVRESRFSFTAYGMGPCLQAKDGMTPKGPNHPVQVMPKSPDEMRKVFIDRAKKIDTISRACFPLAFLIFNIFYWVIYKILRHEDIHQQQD

For `OC[C@H]1O[C@@H](O[C@H]2[C@H](O)[C@@H](O)C(O)O[C@@H]2CO)[C@H](O)[C@@H](O)[C@H]1O` (mixture of isomers) [Lactose, lactose], the “on-rate of current enhancement” value (GlyR) is listed as ~ 1.5 h.
In the case of `OC[C@H]1OC(O)[C@H](O)[C@@H](O)[C@@H]1O` (stereo partly shown) [Glucose, glucose], the “time after which effects on pain-related behavior were fully developed” value (Male Swiss Webster mice [1]; glucose 2 g/kg IP) is reported as 20 min, the “average normalized latency time” value (Male Swiss Webster mice [2]; glucose 2 g/kg IP, no strychnine, normalized to baseline, mean ± SEM) is reported as 1.79 ± 0.18 and the normalized response time (Male Swiss Webster mice [2]; glucose 2 g/kg pretreatment followed by 0.2 mg/kg strychnine) is reported as 1.72 ± 0.44. The normalized response time (Male Swiss Webster mice [2]; glucose 2 g/kg prior to 0.5 mg/kg strychnine challenge) was 0.74 ± 0.15, the “reduction of EC50 value” [3] was 2–4 fold and the EC50 (GlyR) was 6000 to 7000 µM. For the same compound, the “on-rate of current enhancement” value (GlyR) was under 0.5 h.
In the case of `O=C(CO)[C@@H](O)[C@H](O)[C@H](O)CO` [Fructose, fructose], the EC50 (GlyR) is listed as 6000 to 7000 µM and the “on-rate of current enhancement” value (GlyR) is listed as under 0.5 h.
`O=C1C[C@@H]2OCC=C3CN4CC[C@]56c7ccccc7N1[C@H]5[C@H]2[C@H]3C[C@H]46` [Strychnine, strychnine] showed an IC50 ([4]; absence of glucose) of 0.0307 ± 0.0028 µM, an IC50 ([4]; cells preincubated with 50 mM glucose) of 0.0462 ± 0.0058 µM and a Ki ([4]; cells pretreated with 50 mM glucose) of 0.0198 ± 0.0016 µM. For the same compound, the Ki ([4]; control cells) was 0.0188 ± 0.0014 µM, the PWT ratio (Male Swiss Webster mice [1]; no glucose – Strychnine 0.2 mg/kg) was 0.98 and 0.73 and 0.48 and 0.62 and 0.87 and 0.24 and 0.76 and 0.15 and the PWT ratio (Male Swiss Webster mice [1]; no glucose – Strychnine 0.5 mg/kg) was 0.17 and 1.46 and 0.19 and 0.30 and 0.14. The “time after which notable effects on pain sensitivity were gone” value (Male Swiss Webster mice [1]; sub-lethal amounts of strychnine, IP) was over 5 min, the “normalized time to response” value (Male Swiss Webster mice [2]; strychnine 0.2 mg/kg IP, no glucose) was 0.63 ± 0.10 and the normalized response time (Male Swiss Webster mice [2]; strychnine 0.5 mg/kg IP, no glucose) was 0.30 ± 0.07. The lethality (mice; 2 mg/kg IP, Swiss Webster mice, ref Maher et al., 2014) was 85%, the LD50 (mice; intraperitoneal (IP) injection, ref Prasad et al., 1981) was 0.98 mg/kg and the LD50 (mice; oral administration, ref Setnikar et al., 1960) was 2 mg/kg.
In the case of `OC[C@H]1O[C@@](CO)(O[C@H]2O[C@H](CO)[C@@H](O)[C@H](O)[C@H]2O)[C@@H](O)[C@@H]1O` [Sucrose, sucrose], the “on-rate of current enhancement” value (GlyR) is listed as ~ 1.5 h.
With `NCC(=O)O` [Glycine, glycine] the EC50 ([4]; after overnight preincubation with 50 mM glucose) was 49.9 ± 5.3 µM and the EC50 ([4]; control, no glucose preincubation (5.5 mM glucose in medium)) was 106 ± 16 µM.
